According to patent publication US8226966B2, “Fungicide N-6-membered fused (hetero) aryl-methylene-N-cycloalkyl carboxamide derivatives” (Bayer Cropscience AG, priority 2007, dated 2012):

Assay: logP by HPLC on reversed-phase column (C 18), EEC Directive 79/831 Annex V.A8
Format: physicochemical
Settings: 40° C., 0.1% aqueous formic acid and acetonitrile, linear gradient 10% to 90% acetonitrile
Protocol: In the following table, the logP values were determined in accordance with EEC Directive 79/831 Annex V.A8 by HPLC (High Performance Liquid Chromatography) on a reversed-phase column (C 18), using the method described below: Temperature: 40° C.; Mobile phases: 0.1% aqueous formic acid and acetonitrile linear gradient from 10% acetonitrile to 90% acetonitrile. Calibration was carried out using unbranched alkan-2-ones (comprising 3 to 16 carbon atoms) with known logP values (determination of the logP values by the retention times using linear interpolation between two successive alkanones).

Q: With `Cc1nn(C)c(F)c1C(=O)N(Cc1ccc(Br)c2cccnc12)C1CC1` [Example 167] as the molecule, how does the LogP read?
A: The LogP was 2.9.

Q: With `COc1ccc2ccc(OC)c(CN(C(=O)c3c(C)nn(C)c3F)C3CC3)c2c1` [Example 222] as the molecule, how does the LogP read?
A: Its LogP is 2.96.

Same assay, conditions: 40° C., 0.1% aqueous formic acid and acetonitrile, linear gradient from 10% to 90% acetonitrile

Q: Which LogP does the source give for `Cc1ccc2ccccc2c1CN(C(=O)c1cn(C)nc1C(F)F)C1CC1` [Example 40] here?
A: Its LogP is 3.25.

Q: With `COC(=O)C(c1cccc2ccccc12)N(C(=O)c1cn(C)nc1C(F)F)C1CC1` (stereo not shown) [Example 69] as the molecule, how does the LogP read?
A: The LogP was 3.02.

Q: For `COc1nn(C)cc1C(=S)N(Cc1ccc2ccccc2c1Br)C1CC1` [Example 28], which LogP is on record?
A: Its LogP is 4.25.

Q: For `COC(=O)C(c1cccc2ccccc12)N(C(=O)c1c(C)nn(C)c1F)C1CC1` (stereo not shown) [Example 63], which LogP is on record?
A: Its LogP is 2.92.

Q: Which LogP does the source give for `Cn1cc(C(=O)N(Cc2ccc3ccccc3c2Br)C2CC2)c(C(F)F)n1` [Example 26] here?
A: Its LogP is 3.68.

Q: With `Cc1nn(C)c(F)c1C(=O)N(Cc1ccc(Br)c2ccccc12)C1CC1` [Example 54] as the molecule, how does the LogP read?
A: Its LogP is 3.62.

Q: With `Cn1cc(C(=O)N(Cc2ccc(Br)c3ccccc23)C2CC2)c(C(F)F)n1` [Example 55] as the molecule, how does the LogP read?
A: The LogP was 3.69.

Q: For `COc1nn(C)cc1C(=O)N(Cc1ccc2ccccc2c1Br)C1CC1` [Example 27], which LogP is on record?
A: The LogP was 3.24.

Q: For `COc1nn(C)cc1C(=O)N(C1CC1)C(C)c1cccc2ccccc12` (stereo not shown) [Example 75], which LogP is on record?
A: The LogP was 2.86.

Q: For `Cc1cc(C(=O)N(C2CC2)C(C)c2ccc(Br)c3ccccc23)c(C)o1` (stereo not shown) [Example 60], which LogP is on record?
A: The LogP was 5.2.

Q: For `Cc1nn(C)c(F)c1C(=S)N(Cc1ccc2ccccc2c1Br)C1CC1` [Example 25], which LogP is on record?
A: The LogP was 4.39.
